Measured values as given in patent US8461150B2, “Chalcone linked pyrrolo[2,1-c][1, 4]benzodiazepine hybrids as potential anticancer agents and process for the preparation thereof” (Council of Scientific & Industrial Research, priority 2008, dated 2013).

How the values were obtained:
[1] = test system: duplex-form calf thymus DNA (CT-DNA); test: Thermal denaturation studies with calf thymus DNA; type: binding; conditions: [PBD]:[DNA] molar ratio 1:5, CT-DNA 100 μM, ligand 20 μM, pH 7.00; for ΔTμ (° C.) after incubation at 37 °C. for 0 h: 0 h incubation; for ΔTμ (° C.) after incubation at 37 °C. for 18 h: 18 h incubation
Description: These compounds have also been subjected to thermal denaturation studies with duplex-form calf thymus DNA (CT-DNA) using an modification of a reported procedure. Working solutions in aqueous buffer (10 mM NaH2PO4/Na2HPO4, 1 mM Na2EDTA, pH 7.00+0.01) containing CT-DNA (100 μm in phosphate) and the PBD (20 μm) have been prepared by addition of concentrated PBD solutions in DMSO to obtain a fixed [PBD]/[DNA] molar ratio of 1:5. The DNA-PBD solutions have been incubated at 37° C. for 0 and 18 h prior to analysis. Samples have been monitored at 260 nm using a Beckman DU-800 spectrophotometer fitted with high performance temperature controller, and heated at 1° C. min^−1 in the 40-110° C. range. DNA helix→coil transition temperatures (Tm) have been obtained from the maxima in the d(A260)/d T derivative plots. Drug-induced alterations in DNA melting behavior are given by: ΔTm=Tm(DNA+PBD)−Tm(DNA alone), where the Tm value for the PBD-free CT-DNA is 68.5±0.01.

human tumour cell lines = test: In vitro cytotoxicity, mean graph midpoints (MG_MID) over human tumour cell lines; type: cell-based; conditions: human tumour cell lines, 48 h exposure, SRB
Description: (§1) Biological Activity: The in vitro cell line studies were carried out at the National Cancer Institute, Maryland, USA.
(§2) 6b, 6c, 6g, 10a and 10b were evaluated for in vitro anticancer activity against sixty human tumour cells derived from nine cancer types (leukemia, non-small-cell lung, colon, CNS, melanoma, ovarian, prostate, renal and breast cancer) as shown in (Table 1 and 2). For the compound, dose response curves for each cell line were measured at a minimum of five concentrations at 10 fold dilutions. A protocol of 48 h continuous drug exposure was used and a sulforhodamine B (SRB) protein assay was used to estimate cell viability or growth. The concentration causing 50% cell growth inhibition (GI50), total cell growth inhibition (TGI 0% growth) and 50% cell death (LC50, −50% growth) compared with the control was calculated.

LOX IMVI (Melanoma) = test: Cytotoxicity in selected cancer cell lines (SRB, 48 h); type: cell-based, human
Description: as §1, §2
(§3) Each cancer type represents the average of six to nine different cancer cell lines. In vitro evaluation of cytotoxic activity. The compound 6b, 6c, 6g 10a and 10b were evaluated for in vitro anticancer activity against nine human tumour cells derived from six cancer types (leukemia, colon, prostate, melanoma, ovarian, lung, cervix and breast cancer) as shown in Table 3. […] Compounds 6b, 6c, 6g, 10a and 10b have been evaluated for their in vitro cytotoxicity in selected human cancer cell lines of colon (Colo205), lung (NCI-H522, NCI-H226), colon (colo-205), prostate (DU145, PC3), ovarian (IGROV1, HT1080), and breast (MDA-MB-435, Zr-75-1), melanoma (LOXMIVI, VACC-62, SK-MEL-5) origin. A protocol of 48 h continuous drug exposure has been used and an […] has been used to estimate cell viability or growth. The results are expressed as percent of cell growth determined relative to that of untreated control cells

ACHN (Renal) = test: as above; type: cell-based, human
Description: as §1, §2, §3

OVCAR-3 (Ovarian) = test: as above; type: cell-based, human
Description: as §1, §2, §3

SK-MEL-5 (Melanoma) = test: as above; type: cell-based, human
Description: as §1, §2, §3

M14 (Melanoma) = test: as above; type: cell-based, human
Description: as §1, §2, §3

SW-620 (Colon) = test: as above; type: cell-based, human
Description: as §1, §2, §3

CCRF-CEM (Leukemia) = test: as above; type: cell-based, human
Description: as §1, §2, §3

TK-10 (Renal) = test: as above; type: cell-based, human
Description: as §1, §2, §3

SF-539 (CNS) = test: as above; type: cell-based, human
Description: as §1, §2, §3

UO-31 (Renal) = test: as above; type: cell-based, human
Description: as §1, §2, §3

U251 (CNS) = test: as above; type: cell-based, human
Description: as §1, §2, §3

UACC-62 (Melanoma) = test: as above; type: cell-based, human
Description: as §1, §2, §3

[2] = test system: NCI-H226 (Non-small cell lung); test: as above; type: cell-based, human
Description: as §1, §2, §3

786-0 (Renal) = test: as above; type: cell-based, human
Description: as §1, §2, §3

CAKI-1 (Renal) = test: as above; type: cell-based, human
Description: as §1, §2, §3

HCT-116 (Colon) = test: as above; type: cell-based, human
Description: as §1, §2, §3

HL-60(TB) (Leukemia) = test: as above; type: cell-based, human
Description: as §1, §2, §3

MALME-3M (Melanoma) = test: as above; type: cell-based, human
Description: as §1, §2, §3

RPMI-8226 (Leukemia) = test: as above; type: cell-based, human
Description: as §1, §2, §3

HCT-15 (Colon) = test: as above; type: cell-based, human
Description: as §1, §2, §3

[3] = test system: NCI-H23 (Non-small cell lung); test: as above; type: cell-based, human
Description: as §1, §2, §3

NCI/ADR-RES (Breast) = test: as above; type: cell-based, human
Description: as §1, §2, §3

A498 (Renal) = test: as above; type: cell-based, human
Description: as §1, §2, §3

[4] = test system: NCI-H522 (Non-small cell lung); test: as above; type: cell-based, human
Description: as §1, §2, §3

MDA-MB-231/ATCC (Breast) = test: as above; type: cell-based, human
Description: as §1, §2, §3

UACC-257 (Melanoma) = test: as above; type: cell-based, human
Description: as §1, §2, §3

[5] = test system: Non-small cell lung cancer cell lines; test: NCI in vitro anticancer screen, SRB assay, 48 h, panel average; type: cell-based, human; conditions: average of six to eight cell lines, 48 h exposure
Description: as §1
(§4) Cytotoxicity: • The compounds 6b) 7-Methoxy-8-{4-[1-(4-fluorophenyl)-3-(4-hydroxy-3-methoxyphenyl)-2-propen-1-one]butyl}-oxy-(11aS)-1,2,3,11a-5H-pyrrolo[2,1-c][1,4]benzodiazepin-5-one; • (6c) 7-Methoxy-8-{5-[1-(4-fluorophenyl)-3-(4-hydroxy-3-methoxyphenyl)-2-propen-1-one]pentyl}-oxy-(11aS)-1,2,3,11a-5H-pyrrolo[2,1-c][1,4]benzodiazepin-5-one; • (6g) 7-Methoxy-8-{3-[1-(2-hydroxyphenyl)-3-(4-hydroxy-3-methoxyphenyl)-2-propen-1-one]propyl}-oxy-(11aS)-1,2,3,11a-5H-pyrrolo[2,1-c][1,4]benzodiazepin-5-one; • (10a) 7-Methoxy-8-{3-[3-(4-hydroxy-3-methoxyphenyl)-1-(2,4-dimethyl-3-quinolyl)-2-propen-1-one]propyl}-oxy-(11aS)-1,2,3,11a-5H-pyrrolo[2,1-c][1,4]benzodiazepin-5-one • (10b) 7-Methoxy-8-{4-[3-(4-hydroxy-3-methoxyphenyl)-1-(2,4-dimethyl-3-quinolyl)-2-propen-1-one]butyl}-oxy-(11aS)-1,2,3,11a-5H-pyrrolo[2,1-c][1,4]benzodiazepin-5-one; were evaluated for in vitro anticancer activity against […] derived from […] (leukemia, ovarian, renal, melanoma, CNS, colon, prostate, lung, cervix and breast cancer) as shown in (Table 1, 2 and 3)
as §2
(§5) Each cancer type represents the average of six to eight different cancer cell lines.

CNS cancer cell lines = test: as above; type: cell-based, human; conditions: average of six to eight cell lines, 48 h exposure
Description: as §1, §4, §2, §5

[6] = test system: Ovarian cancer cell lines; test: as above; type: cell-based, human; conditions: average of six to eight cell lines, 48 h exposure
Description: as §1, §4, §2, §5

Breast cancer cell lines = test: as above; type: cell-based, human; conditions: average of six to eight cell lines, 48 h exposure
Description: as §1, §4, §2, §5

Colon cancer cell lines = test: as above; type: cell-based, human; conditions: average of six to eight cell lines, 48 h exposure
Description: as §1, §4, §2, §5

Renal cancer cell lines = test: as above; type: cell-based, human; conditions: average of six to eight cell lines, 48 h exposure
Description: as §1, §4, §2, §5

[7] = test system: Prostate cancer cell lines; test: as above; type: cell-based, human; conditions: average of six to eight cell lines, 48 h exposure
Description: as §1, §4, §2, §5

[8] = test system: Melanoma cancer cell lines; test: as above; type: cell-based, human; conditions: average of six to eight cell lines, 48 h exposure
Description: as §1, §4, §2, §5

[9] = test system: Leukemia cancer cell lines; test: as above; type: cell-based, human; conditions: average of six to eight cell lines, 48 h exposure
Description: as §1, §4, §2, §5

## COc1cc(C=CC(=O)c2ccc(F)cc2)ccc1OCCCOc1cc2c(cc1OC)C(=O)N1CCC[C@H]1C=N2 [6a, 7-Methoxy-8-{3-[1-(4-fluorophenyl)-3-(4-hydroxy-3-methoxyphenyl)-2-propen-1-one]propyl}-oxy-(11aS)-1,2,3,11a-5H-pyrrolo[2,1-c][1,4]benzodiazepin-5-one]
[1]
  ΔTμ (° C.) after incubation at 37 °C. for 0 h: 1.7 °C
  ΔTμ (° C.) after incubation at 37 °C. for 18 h: 2.4 °C

## COc1cc(C=CC(=O)c2ccccc2O)ccc1OCCCOc1cc2c(cc1OC)C(=O)N1CCC[C@H]1C=N2 [6d, 7-Methoxy-8-{3-[1-(2-hydroxyphenyl)-3-(4-hydroxy-3-methoxyphenyl)-2-propen-1-one]propyl}-oxy-(11aS)-1,2,3,11a-5H-pyrrolo[2,1-c][1,4]benzodiazepin-5-one]
[1]
  ΔTμ (° C.) after incubation at 37 °C. for 0 h: 2.1 °C
  ΔTμ (° C.) after incubation at 37 °C. for 18 h: 2.6 °C

## COc1cc(/C=C/C(=O)c2ccc(O)cc2)ccc1OCCCOc1cc2c(cc1OC)C(=O)N1CCC[C@H]1C=N2 [6g, 7-Methoxy-8-{3-[1-(4-hydroxyphenyl)-3-(4-hydroxy-3-methoxyphenyl)-2-propen-1-one]propyl}-oxy-(11aS)-1,2,3,11a-5H-pyrrolo[2,1-c][1,4]benzodiazepin-5-one]
Human tumour cell lines; 50% cell death
  Log10LC50 mean graph midpoint (MG_MID): −4.58
Human tumour cell lines
  Log10GI50 mean graph midpoint (MG_MID): −5.78
Human tumour cell lines; total cell growth inhibition
  Log10TGI mean graph midpoint (MG_MID): −5.86
LOX IMVI (Melanoma)
  GI50: 15 µM
ACHN (Renal)
  GI50: 46.1 µM
OVCAR-3 (Ovarian)
  GI50: 46.3 µM
SK-MEL-5 (Melanoma)
  GI50: 23.3 µM
M14 (Melanoma)
  GI50: 18.8 µM
SW-620 (Colon)
  GI50: 26.9 µM
CCRF-CEM (Leukemia)
  GI50: 37.4 µM
TK-10 (Renal)
  GI50: 31.4 µM
SF-539 (CNS)
  GI50: 33.7 µM
UO-31 (Renal)
  GI50: 45.2 µM
U251 (CNS)
  GI50: 19.8 µM
UACC-62 (Melanoma)
  GI50: 22.5 µM
[2]
  GI50: 28.4 µM
786-0 (Renal)
  GI50: 24.9 µM
CAKI-1 (Renal)
  GI50: 22.9 µM
HCT-116 (Colon)
  GI50: 14.6 µM
HL-60(TB) (Leukemia)
  GI50: 49.5 µM
MALME-3M (Melanoma)
  GI50: 36.2 µM
RPMI-8226 (Leukemia)
  GI50: 46.8 µM
HCT-15 (Colon)
  GI50: 18.4 µM
[3]
  GI50: 22.5 µM
NCI/ADR-RES (Breast)
  GI50: 28.7 µM
A498 (Renal)
  GI50: 29 µM
[4]
  GI50: 18.3 µM
MDA-MB-231/ATCC (Breast)
  GI50: 14.2 µM
UACC-257 (Melanoma)
  GI50: 15.9 µM
[5]
  Log GI50 (concentration in mol/L causing 50% growth inhibition): −5.82 mol/L
CNS cancer cell lines
  Log GI50 (concentration in mol/L causing 50% growth inhibition): −5.62 mol/L
[6]
  Log GI50 (concentration in mol/L causing 50% growth inhibition): −5.56 mol/L
Breast cancer cell lines
  Log GI50 (concentration in mol/L causing 50% growth inhibition): −6.57 mol/L
Colon cancer cell lines
  Log GI50 (concentration in mol/L causing 50% growth inhibition): −5.85 mol/L
Renal cancer cell lines
  Log GI50 (concentration in mol/L causing 50% growth inhibition): −5.67 mol/L
[7]
  Log GI50 (concentration in mol/L causing 50% growth inhibition): −4.63 mol/L
[8]
  Log GI50 (concentration in mol/L causing 50% growth inhibition): −5.65 mol/L
[9]
  Log GI50 (concentration in mol/L causing 50% growth inhibition): −5.62 mol/L

## COc1cc(C=CC(=O)c2c(C)nc3ccccc3c2C)ccc1OCCCCCOc1cc2c(cc1OC)C(=O)N1CCC[C@H]1C=N2 [10c, 7-Methoxy-8-{5-[3-(4-hydroxy-3-methoxyphenyl)-1-(2,4-dimethyl-3-quinolyl)-2-propen-1-one]pentyl}-oxy-(11aS)-1,2,3,11a-5H-pyrrolo[2,1-c][1,4]benzodiazepin-5-one]
[1]
  ΔTμ (° C.) after incubation at 37 °C. for 0 h: 4.7 °C
  ΔTμ (° C.) after incubation at 37 °C. for 18 h: 5.1 °C

## COc1cc(C=CC(=O)c2c(C)nc3ccccc3c2C)ccc1OCCCCCCOc1cc2c(cc1OC)C(=O)N1CCC[C@H]1C=N2 [10d, 7-Methoxy-8-{6-[3-(4-hydroxy-3-methoxyphenyl)-1-(2,4-dimethyl-3-quinolyl)-2-propen-1-one]hexyl}-oxy-(11aS)-1,2,3,11a-5H-pyrrolo[2,1-c][1,4]benzodiazepin-5-one]
[1]
  ΔTμ (° C.) after incubation at 37 °C. for 0 h: 4.9 °C
  ΔTμ (° C.) after incubation at 37 °C. for 18 h: 5.3 °C

## COc1cc2c(cc1O)N=CC1CCCN1C2=O (stereo not drawn) [DC-81, reference compound]
[1]
  ΔTμ (° C.) after incubation at 37 °C. for 0 h: 0.3 °C
  ΔTμ (° C.) after incubation at 37 °C. for 18 h: 0.7 °C
